Assay results published in ChEMBL document CHEMBL1142250, “Discovery of azetidinone acids as conformationally-constrained dual PPARalpha/gamma agonists” (Bioorg Med Chem Lett, 2008).

tested on: Mus musculus; test: Decrease in plasma glucose level in db/db mouse at 10 mg/kg/day, po qd after 14 days; format: functional; set-up: scale not given: the % may be the effect or the level left; conditions: not given

With COc1ccc(OC(=O)N(CC(=O)O)Cc2ccc(OCCc3nc(-c4ccccc4)oc3C)cc2)cc1 [MURAGLITAZAR] as the compound, how does the Activity read?
Its Activity is -54%.

biological target: T1, Peroxisome proliferator-activated receptor gamma (Homo sapiens, UniProt P37231); test: Inhibition of PPARgamma; conditions: not given
T1 sequence (P37231 whole entry): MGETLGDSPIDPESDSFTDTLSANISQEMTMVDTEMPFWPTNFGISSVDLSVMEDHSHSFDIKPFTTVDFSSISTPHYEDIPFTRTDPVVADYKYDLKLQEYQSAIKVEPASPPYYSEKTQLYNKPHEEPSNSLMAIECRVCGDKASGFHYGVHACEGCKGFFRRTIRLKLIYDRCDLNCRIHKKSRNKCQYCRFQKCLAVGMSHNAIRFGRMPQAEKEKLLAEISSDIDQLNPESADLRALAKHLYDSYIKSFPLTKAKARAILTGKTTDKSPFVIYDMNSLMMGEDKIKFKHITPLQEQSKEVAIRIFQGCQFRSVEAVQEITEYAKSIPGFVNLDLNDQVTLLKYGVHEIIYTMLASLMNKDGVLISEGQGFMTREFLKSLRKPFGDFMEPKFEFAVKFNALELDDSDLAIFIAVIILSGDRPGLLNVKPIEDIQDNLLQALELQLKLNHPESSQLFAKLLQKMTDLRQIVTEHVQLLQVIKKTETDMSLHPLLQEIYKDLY

Which IC50 does the source give for COc1ccc(N2C(=O)[C@H](Cc3cccc(OCCc4nc(-c5ccccc5)oc4C)c3)[C@@H]2C(=O)O)cc1 here?
Its IC50 is 1100 nM.

Which IC50 does the source give for COc1ccc(N2C(=O)[C@H](Cc3ccc(OCCc4nc(-c5ccccc5)oc4C)cc3)[C@@H]2C(=O)O)cc1 here?
The IC50 was 3400 nM.

For Cc1oc(-c2ccccc2)nc1CCOc1cccc(CC2C(=O)N(c3ccc(Cl)cc3)C2C(=O)O)c1 (racemic), which IC50 is on record?
The IC50 was 360 nM.

For COc1ccc(-c2nc(CCOc3cccc(C[C@@H]4C(=O)N(c5ccc(C(C)(C)C)cc5)[C@@H]4C(=O)O)c3)c(C)o2)cc1, which IC50 is on record?
Its IC50 is 220 nM.

Which IC50 does the source give for Cc1oc(-c2ccccc2)nc1CCOc1cccc(CC2C(=O)N(c3ccc(F)cc3)C2C(=O)O)c1 (racemic) here?
Its IC50 is 180 nM.

For COc1ccc(N2C(=O)C(Cc3cccc(OCCc4nc(-c5ccccc5)oc4C)c3)C2C(=O)O)cn1 (racemic), which IC50 is on record?
Its IC50 is 230 nM.

With COc1ccc(N2C(=O)C(Cc3cccc(OCCc4nc(-c5ccccc5)oc4C)c3)C2C(=O)O)cc1 (racemic) as the compound, how does the IC50 read?
The IC50 was 160 nM.

Which IC50 does the source give for CCCCCCCN(CCc1ccc(O[C@@](C)(CC)C(=O)O)cc1)C(=O)Nc1ccc(F)cc1F here?
The IC50 was 600 nM.

biological target: T2, Peroxisome proliferator-activated receptor alpha (Homo sapiens, UniProt Q07869); test: Agonist activity at PPARalpha in HEK293 cells by GAL4 transactivation assay; format: functional, cell-based; conditions: not given
T2 sequence (Q07869 whole entry): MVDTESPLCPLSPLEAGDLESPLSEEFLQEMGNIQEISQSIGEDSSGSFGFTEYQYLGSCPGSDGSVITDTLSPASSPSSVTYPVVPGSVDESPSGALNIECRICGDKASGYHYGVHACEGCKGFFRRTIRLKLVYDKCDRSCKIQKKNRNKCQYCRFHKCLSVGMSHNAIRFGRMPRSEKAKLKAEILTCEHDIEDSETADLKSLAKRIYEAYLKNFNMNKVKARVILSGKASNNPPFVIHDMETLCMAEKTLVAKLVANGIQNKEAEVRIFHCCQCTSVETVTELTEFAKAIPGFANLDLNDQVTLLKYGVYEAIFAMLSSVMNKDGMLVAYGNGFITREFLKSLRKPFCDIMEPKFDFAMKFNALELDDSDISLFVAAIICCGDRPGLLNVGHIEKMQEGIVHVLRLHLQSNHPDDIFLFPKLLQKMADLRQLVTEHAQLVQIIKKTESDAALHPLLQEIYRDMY

For COc1ccc(N2C(=O)[C@H](Cc3cccc(OCCc4nc(-c5ccccc5)oc4C)c3)[C@@H]2C(=O)O)cc1, which EC50 is on record?
Its EC50 is > 7500 nM.

With COc1ccc(N2C(=O)[C@H](Cc3ccc(OCCc4nc(-c5ccccc5)oc4C)cc3)[C@@H]2C(=O)O)cc1 as the compound, how does the EC50 read?
Its EC50 is > 7500 nM.

For Cc1oc(-c2ccccc2)nc1CCOc1cccc(CC2C(=O)N(c3ccc(Cl)cc3)C2C(=O)O)c1 (racemic), which EC50 is on record?
Its EC50 is 230 nM.

For COc1ccc(-c2nc(CCOc3cccc(C[C@@H]4C(=O)N(c5ccc(C(C)(C)C)cc5)[C@@H]4C(=O)O)c3)c(C)o2)cc1, which EC50 is on record?
Its EC50 is 8 nM.

With Cc1oc(-c2ccccc2)nc1CCOc1cccc(CC2C(=O)N(c3ccc(F)cc3)C2C(=O)O)c1 (racemic) as the compound, how does the EC50 read?
The EC50 was 110 nM.

With COc1ccc(N2C(=O)C(Cc3cccc(OCCc4nc(-c5ccccc5)oc4C)c3)C2C(=O)O)cn1 (racemic) as the compound, how does the EC50 read?
Its EC50 is 90 nM.

With COc1ccc(N2C(=O)C(Cc3cccc(OCCc4nc(-c5ccccc5)oc4C)c3)C2C(=O)O)cc1 (racemic) as the compound, how does the EC50 read?
Its EC50 is 140 nM.

Which EC50 does the source give for CCCCCCCN(CCc1ccc(O[C@@](C)(CC)C(=O)O)cc1)C(=O)Nc1ccc(F)cc1F here?
The EC50 was 45 nM.

biological target: T3, Peroxisome proliferator-activated receptor alpha (Homo sapiens) (UniProt Q07869); test: Agonist activity at PPARalpha in HEK293 cells at 1 uM by GAL4 transactivation assay relative to GW-2331; format: functional, cell-based; conditions: not given
T3 sequence (whole entry): T2 sequence (Q07869 whole entry)

With Cc1oc(-c2ccccc2)nc1CCOc1cccc(CC2C(=O)N(c3ccc(Cl)cc3)C2C(=O)O)c1 (racemic) as the compound, how does the Intrinsic activity read?
The Intrinsic activity was > 90%.

For COc1ccc(-c2nc(CCOc3cccc(C[C@@H]4C(=O)N(c5ccc(C(C)(C)C)cc5)[C@@H]4C(=O)O)c3)c(C)o2)cc1, which Intrinsic activity is on record?
Its Intrinsic activity is > 90%.

Which Intrinsic activity does the source give for Cc1oc(-c2ccccc2)nc1CCOc1cccc(CC2C(=O)N(c3ccc(F)cc3)C2C(=O)O)c1 (racemic) here?
The Intrinsic activity was > 90%.

For COc1ccc(N2C(=O)C(Cc3cccc(OCCc4nc(-c5ccccc5)oc4C)c3)C2C(=O)O)cn1 (racemic), which Intrinsic activity is on record?
Its Intrinsic activity is > 90%.

For COc1ccc(N2C(=O)C(Cc3cccc(OCCc4nc(-c5ccccc5)oc4C)c3)C2C(=O)O)cc1 (racemic), which Intrinsic activity is on record?
The Intrinsic activity was > 90%.

For CCCCCCCN(CCc1ccc(O[C@@](C)(CC)C(=O)O)cc1)C(=O)Nc1ccc(F)cc1F, which Intrinsic activity is on record?
The Intrinsic activity was > 90%.

tested on: not listed separately; test: Drug concentration in db/db mouse plasma at 10 mg/kg/day, po qd after 14 days; format: ADME, organism-based; set-up: route oral; conditions: not given

With COc1ccc(OC(=O)N(CC(=O)O)Cc2ccc(OCCc3nc(-c4ccccc4)oc3C)cc2)cc1 [MURAGLITAZAR] as the compound, how does the concentration at 336 h read?
The concentration at 336 h was 103 µM.

tested on: Liver; test: Drug concentration in db/db mouse liver at 10 mg/kg/day, po qd after 14 days; format: ADME, organism-based; set-up: route oral; conditions: in vivo, 336 h

For COc1ccc(OC(=O)N(CC(=O)O)Cc2ccc(OCCc3nc(-c4ccccc4)oc3C)cc2)cc1 [MURAGLITAZAR], which Drug uptake is on record?
Its Drug uptake is 25 nmol/g.

tested on: Adipose tissue; test: Drug concentration in db/db mouse adipose at 10 mg/kg/day, po qd after 14 days; format: ADME, organism-based; set-up: route oral; conditions: in vivo, 336 h

For COc1ccc(OC(=O)N(CC(=O)O)Cc2ccc(OCCc3nc(-c4ccccc4)oc3C)cc2)cc1 [MURAGLITAZAR], which Drug uptake is on record?
The Drug uptake was 3 nmol/g.

biological target: Cytochrome P450 3A4 (Homo sapiens, UniProt P08684); test: Inhibition of CYP3A4 in presence of 7-benzyloxyresorufin substrate; format: ADME; conditions: not given
Sequence (P08684 whole entry): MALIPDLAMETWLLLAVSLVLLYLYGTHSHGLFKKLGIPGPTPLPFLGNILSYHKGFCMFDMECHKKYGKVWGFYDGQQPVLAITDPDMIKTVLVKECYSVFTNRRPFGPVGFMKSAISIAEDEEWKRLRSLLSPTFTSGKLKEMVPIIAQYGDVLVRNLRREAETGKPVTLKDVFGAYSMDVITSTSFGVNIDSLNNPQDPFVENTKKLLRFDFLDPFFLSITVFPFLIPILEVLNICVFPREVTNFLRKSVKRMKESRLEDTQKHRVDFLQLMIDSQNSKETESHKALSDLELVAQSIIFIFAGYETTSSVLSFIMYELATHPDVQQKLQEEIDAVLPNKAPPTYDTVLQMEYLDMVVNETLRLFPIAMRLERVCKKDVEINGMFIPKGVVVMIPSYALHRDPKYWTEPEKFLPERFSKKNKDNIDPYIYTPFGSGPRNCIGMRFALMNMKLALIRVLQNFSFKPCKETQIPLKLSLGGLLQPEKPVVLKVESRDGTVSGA

Which IC50 does the source give for COc1ccc(-c2nc(CCOc3cccc(C[C@@H]4C(=O)N(c5ccc(C(C)(C)C)cc5)[C@@H]4C(=O)O)c3)c(C)o2)cc1 here?
The IC50 was 12000 nM.

tested on: Mus musculus; test: Decrease in plasma triglyceride level in db/db mouse at 10 mg/kg/day, po qd after 14 days; format: functional; set-up: scale not given: the % may be the effect or the level left; conditions: not given

Which Activity does the source give for COc1ccc(OC(=O)N(CC(=O)O)Cc2ccc(OCCc3nc(-c4ccccc4)oc3C)cc2)cc1 [MURAGLITAZAR] here?
The Activity was -33%.

biological target: T2, Peroxisome proliferator-activated receptor alpha; conditions: not given

With COc1ccc(N2C(=O)[C@H](Cc3cccc(OCCc4nc(-c5ccccc5)oc4C)c3)[C@@H]2C(=O)O)cc1 as the compound, how does the IC50 read?
Its IC50 is > 15000 nM.

For COc1ccc(N2C(=O)[C@H](Cc3ccc(OCCc4nc(-c5ccccc5)oc4C)cc3)[C@@H]2C(=O)O)cc1, which IC50 is on record?
Its IC50 is > 15000 nM.

Which IC50 does the source give for Cc1oc(-c2ccccc2)nc1CCOc1cccc(CC2C(=O)N(c3ccc(Cl)cc3)C2C(=O)O)c1 (racemic) here?
Its IC50 is 1400 nM.

With COc1ccc(-c2nc(CCOc3cccc(C[C@@H]4C(=O)N(c5ccc(C(C)(C)C)cc5)[C@@H]4C(=O)O)c3)c(C)o2)cc1 as the compound, how does the IC50 read?
The IC50 was 460 nM.

For Cc1oc(-c2ccccc2)nc1CCOc1cccc(CC2C(=O)N(c3ccc(F)cc3)C2C(=O)O)c1 (racemic), which IC50 is on record?
Its IC50 is 2400 nM.

For COc1ccc(N2C(=O)C(Cc3cccc(OCCc4nc(-c5ccccc5)oc4C)c3)C2C(=O)O)cn1 (racemic), which IC50 is on record?
The IC50 was 1300 nM.

For COc1ccc(N2C(=O)C(Cc3cccc(OCCc4nc(-c5ccccc5)oc4C)c3)C2C(=O)O)cc1 (racemic), which IC50 is on record?
The IC50 was 690 nM.

For CCCCCCCN(CCc1ccc(O[C@@](C)(CC)C(=O)O)cc1)C(=O)Nc1ccc(F)cc1F, which IC50 is on record?
The IC50 was 740 nM.

biological target: T1, Peroxisome proliferator-activated receptor gamma; conditions: not given

Which EC50 does the source give for COc1ccc(N2C(=O)[C@H](Cc3cccc(OCCc4nc(-c5ccccc5)oc4C)c3)[C@@H]2C(=O)O)cc1 here?
The EC50 was 840 nM.

For Cc1oc(-c2ccccc2)nc1CCOc1cccc(CC2C(=O)N(c3ccc(Cl)cc3)C2C(=O)O)c1 (racemic), which EC50 is on record?
Its EC50 is 130 nM.

With COc1ccc(-c2nc(CCOc3cccc(C[C@@H]4C(=O)N(c5ccc(C(C)(C)C)cc5)[C@@H]4C(=O)O)c3)c(C)o2)cc1 as the compound, how does the EC50 read?
The EC50 was 40 nM.

Which EC50 does the source give for Cc1oc(-c2ccccc2)nc1CCOc1cccc(CC2C(=O)N(c3ccc(F)cc3)C2C(=O)O)c1 (racemic) here?
The EC50 was 30 nM.

For COc1ccc(N2C(=O)C(Cc3cccc(OCCc4nc(-c5ccccc5)oc4C)c3)C2C(=O)O)cn1 (racemic), which EC50 is on record?
The EC50 was 70 nM.

Which EC50 does the source give for COc1ccc(N2C(=O)C(Cc3cccc(OCCc4nc(-c5ccccc5)oc4C)c3)C2C(=O)O)cc1 (racemic) here?
Its EC50 is 180 nM.

With CCCCCCCN(CCc1ccc(O[C@@](C)(CC)C(=O)O)cc1)C(=O)Nc1ccc(F)cc1F as the compound, how does the EC50 read?
Its EC50 is 243 nM.
